10 compounds from patent US8906908B2, “Hydroxybupropion analogues for treating drug dependence” (priority 2010, dated 2014) can be followed below.

Read-outs that look alike come from different tables or passages of the source. Bounds are passed on as bounds.

The target in one experiment is T1, NE transporters [h(NET)] (Homo sapiens, UniProt P23975).
T1 construct: expressed in transfected cells; host or cells: HEK-293
Nature of the experiment: Inhibition of [3H]norepinephrine uptake into HEK293 cells stably expressing hNET. The format is cell-based. As to conditions: for IC50: HEK293-hNET, mean ± standard error of three independent experiments, read-out: monoamine uptake inhibition IC50 [3H]NE; for selectivity for inhibition of NE over DA uptake: ratio of uptake IC50 values. An excerpt:
(§1) Cell Lines and Culture: Human embryonic kidney (HEK-293) cells stably expressing human DAT, NET or SERT were maintained as previously described in Eshleman, A. J.; Carmolli, M.; Cumbay, M.; Martens, C. R.; Neve, K. A.; Janowsky, A., J. Pharmacol. Exp. Ther. 1999, 289, (2), 877-885. Use was made of several human cell lines that naturally or heterologously express specific, functional, human nAChR subtypes. Cells of the TE671/RD line naturally expresses muscle-type nAChR (a1β1γδ- or α1*-nAChR), and SH-SY5Y neuroblastoma cells naturally expresses autonomic α3β4*-nAChRs (containing α3, β4, probably α5, and sometimes β2 subunits). Different clones of SH-EP1 epithelial cell lines have been engineered to heterologously express either α4β2-nAChR, which are thought to be the most abundant, high affinity nicotine-binding nAChR in mammalian brain, or α4β4-nAChR, another possible brain nAChR subtype (SH-EP1-hα4β2 or α4β4 cells, respectively). These cells were maintained as low passage number (1-26 from our frozen stocks) cultures to ensure stable expression of native or heterologously-expressed nAChR as previously described (see Lukas, R. J.; Fryer, J. D.; Eaton, J. B.; L., G. C., Some methods for studies of nicotinic acetylcholine receptor pharmacology, in Nicotinic receptors and the Nervous System, Levine, E. D., Ed. CRC Press: Boca Raton, 2002; pp 3-27, incorporated herein by reference in its entirety). Cells were passaged once weekly by splitting just-confluent cultures 1/300 (TE671/RD), 1/5 (SH-SY5Y), or 1/20 (transfected SH-EP1) in serum-supplemented medium to maintain log-phase growth.
(§2) See, for example, Damaj, M. I.; Carroll, F. I.; Eaton, J. B.; Navarro, H. A.; Blough, B. E.; Mirza, S.; Lukas, R. J.; Martin, B. R., Mol. Pharmacol. 2004, 66, (3), 675-682 and Eshleman, A. J.; Carmolli, M.; Cumbay, M.; Martens, C. R.; Neve, K. A.; Janowsky, A., J. Pharmacol. Exp. Ther. 1999, 289, (2), 877-885, both incorporated by reference herein in their entireties.

Experiment [1] deals with T2, 5HT transporters [(h)SERT] (Homo sapiens, UniProt P31645).
T2 construct: expressed in transfected cells; host or cells: HEK-293
T2 sequence (P31645 whole entry): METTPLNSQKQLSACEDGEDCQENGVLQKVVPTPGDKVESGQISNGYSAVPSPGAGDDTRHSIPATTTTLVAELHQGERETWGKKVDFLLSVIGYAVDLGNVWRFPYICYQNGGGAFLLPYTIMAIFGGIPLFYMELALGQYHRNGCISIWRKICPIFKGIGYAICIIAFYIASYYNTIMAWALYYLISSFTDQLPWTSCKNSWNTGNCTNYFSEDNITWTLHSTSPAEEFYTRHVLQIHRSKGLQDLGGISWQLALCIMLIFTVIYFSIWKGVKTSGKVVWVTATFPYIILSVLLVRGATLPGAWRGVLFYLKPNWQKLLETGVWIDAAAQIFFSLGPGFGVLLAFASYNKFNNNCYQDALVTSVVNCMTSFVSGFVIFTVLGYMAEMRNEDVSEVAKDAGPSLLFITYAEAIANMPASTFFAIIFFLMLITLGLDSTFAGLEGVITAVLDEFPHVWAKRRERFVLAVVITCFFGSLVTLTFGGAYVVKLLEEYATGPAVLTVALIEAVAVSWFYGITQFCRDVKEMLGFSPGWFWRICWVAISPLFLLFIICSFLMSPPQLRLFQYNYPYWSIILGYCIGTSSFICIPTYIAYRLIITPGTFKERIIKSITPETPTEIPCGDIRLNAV
Nature of the experiment: Inhibition of [3H]serotonin uptake into HEK293 cells stably expressing hSERT. Format: cell-based.
Text: as §1, §2

Another experiment addresses T3, α4β4-nAChR (Homo sapiens, UniProt P30926+P43681).
T3 construct: expressed in transfected cells; host or cells: SH-EP1 epithelial cells (SH-EP1-hα4β4)
Nature of the experiment: 86Rb+ efflux nAChR functional assay, SH-EP1-hα4β4 cells. Format: cell-based. The settings on record: EC80-EC90 carbamylcholine, parentheses = S.E.M. as multiplication/division factor, read-out: nAChR inhibition IC50 α4β4.
Text: as §1
After cells had adhered (generally overnight, but no sooner than 4 h later), the medium was removed and replaced with 250 μL per well of complete medium supplemented with ˜350,000 cpm of ^86Rb^+ (PerkinElmer Life and Analytical Sciences, Boston, Mass.) and counted at 40% efficiency using Cerenkov counting (TriCarb 1900 liquid scintillation analyzer[…]; PerkinElmer Life Sciences).
After at least 4 h and typically overnight, ^86Rb^+ efflux was measured using the “flip-plate” technique. See Lukas, R. J.; Fryer, J. D.; Eaton, J. B.; L., G. C., Some methods for studies of nicotinic acetylcholine receptor pharmacology, in Nicotinic receptors and the Nervous System, Levine, E. D., Ed. CRC Press: Boca Raton, 2002; pp 3-27, incorporated herein by reference in its entirety). Briefly, after aspiration of the bulk of ^86Rb^+ loading medium from each well of the “cell plate,” each well containing cells was rinsed 3× with 2 mL of fresh ^86Rb^+ efflux buffer (130 mM NaCl, 5.4 mM KCl, 2 mM CaCl2, 5 mM glucose, 50 mM HEPES, pH 7.4) to remove extracellular ^86Rb^+. Following removal of residual rinse buffer by aspiration, the flip-plate technique was used again to simultaneously introduce 1.5 mL of fresh efflux buffer containing drugs of choice at indicated final concentrations from a 24-well “efflux/drug plate” into the wells of the cell plate. After a 5 min incubation, the solution was “flipped” back into the efflux/drug plate, and any remaining buffer in the cell plate was removed by aspiration. Cells remaining in the cell plate were lysed and suspended by addition of 1.5 mL of 0.1 M NaOH, 0.1% sodium dodecyl sulfate to each well.
Similarly, the sum of ^86Rb^+ in cell plates and efflux/drug plates also determined the efficiency of ^86Rb^+ loading (the percentage of applied ^86Rb^+ actually loaded into cells).
Specific efflux was then taken as the difference in control samples between total and non-specific ^86Rb^+ efflux. Any intrinsic agonist activity of test drugs was ascertained using samples containing test drug only at different concentrations and was normalized, after subtraction of non-specific efflux, to specific efflux in test drug-free, control samples.

The test system of experiment [2] is Male Institute of Cancer Research (ICR) mice. Kind of experiment: Locomotor activity, antagonism of nicotine effect. The settings on record: for ED50: Mus musculus, pretreatment 15 min before nicotine 1.5 mg/kg s.c., read-out: AD50 Locomotion; for AD50 Locomotion: pretreatment 15 min before nicotine […] s.c. The format is in vivo. An excerpt:
(§3) Animals: Male Institute of Cancer Research (ICR) mice (weighing 20-25 g) obtained from Harlan (Indianapolis, Ind.) were used throughout the study. Animals were housed in an Association for Assessment and Accreditation of Laboratory Animal Care-approved facility, were placed in groups of six, and had free access to food and water. Studies were approved by the Institutional Animal Care and Use Committee of Virginia Commonwealth University.
Locomotor Activity: Mice were placed into individual Omnitech photocell activity cages (28×16.5 cm; Omnitech Electronics, Columbus, Ohio) 5 min after subcutaneous administration of either 0.9% saline or nicotine (1.5 mg/kg). Interruptions of the photocell beams (two banks of eight cells each) were then recorded for the next 10 min. Data were expressed as the number of photocell interruptions.

Experiment [3] shares this test system. Nature of the experiment: Body temperature, antagonism of nicotine-induced hypothermia. Format: in vivo. The settings on record: pretreatment 15 min before nicotine 2.5 mg/kg s.c., tested 30 min after nicotine. On the procedure:
as §3
Body Temperature: Rectal temperature was measured by a thermistor probe (inserted 24 mm) and digital thermometer (YSI Inc., Yellow Springs, Ohio). Readings were taken just before and 30 min after subcutaneous injection of either saline or 2.5 mg/kg nicotine. The difference in rectal temperature before and after treatment was calculated for each mouse. The ambient temperature of the laboratory varied from 21 to 24° C. from day to day. […] The animals were then tested 30 min after administration of a subcutaneous dose of 2.5 mg/kg nicotine.

[4] abbreviates: HEK293-hSERT, mean ± standard error of three independent experiments, read-out: monoamine uptake inhibition IC50 [3H]5HT.

T3 sequence (P43681 29-627 limits assumed): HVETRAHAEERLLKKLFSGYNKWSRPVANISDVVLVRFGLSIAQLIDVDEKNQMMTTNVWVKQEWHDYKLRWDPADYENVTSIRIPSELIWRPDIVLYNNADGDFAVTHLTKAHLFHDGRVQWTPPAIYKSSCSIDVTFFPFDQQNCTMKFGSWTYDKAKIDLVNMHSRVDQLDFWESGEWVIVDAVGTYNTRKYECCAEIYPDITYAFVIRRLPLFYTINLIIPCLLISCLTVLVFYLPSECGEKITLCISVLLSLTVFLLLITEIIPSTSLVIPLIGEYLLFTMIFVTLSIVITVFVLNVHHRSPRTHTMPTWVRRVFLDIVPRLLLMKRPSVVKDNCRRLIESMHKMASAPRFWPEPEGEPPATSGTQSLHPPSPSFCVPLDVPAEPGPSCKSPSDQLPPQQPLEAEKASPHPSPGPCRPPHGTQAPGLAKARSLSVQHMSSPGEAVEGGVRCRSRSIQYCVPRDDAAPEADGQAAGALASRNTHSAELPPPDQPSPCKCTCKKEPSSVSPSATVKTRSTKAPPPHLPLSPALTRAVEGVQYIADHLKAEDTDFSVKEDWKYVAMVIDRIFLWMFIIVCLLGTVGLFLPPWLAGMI
T3 sequence (P30926 22-498): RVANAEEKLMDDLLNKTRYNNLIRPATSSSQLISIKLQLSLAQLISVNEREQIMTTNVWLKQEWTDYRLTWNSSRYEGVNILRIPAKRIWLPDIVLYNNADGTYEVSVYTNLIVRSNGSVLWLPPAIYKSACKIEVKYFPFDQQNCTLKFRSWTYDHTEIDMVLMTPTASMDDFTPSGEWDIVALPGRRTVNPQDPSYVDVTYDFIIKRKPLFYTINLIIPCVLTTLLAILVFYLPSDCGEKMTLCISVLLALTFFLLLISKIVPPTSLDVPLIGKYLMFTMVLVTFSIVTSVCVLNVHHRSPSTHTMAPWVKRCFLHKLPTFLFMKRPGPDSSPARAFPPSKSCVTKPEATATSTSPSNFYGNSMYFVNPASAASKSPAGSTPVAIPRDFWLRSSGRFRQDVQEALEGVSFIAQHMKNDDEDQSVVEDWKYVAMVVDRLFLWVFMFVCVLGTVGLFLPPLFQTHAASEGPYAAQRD
T1 sequence (P23975 whole entry): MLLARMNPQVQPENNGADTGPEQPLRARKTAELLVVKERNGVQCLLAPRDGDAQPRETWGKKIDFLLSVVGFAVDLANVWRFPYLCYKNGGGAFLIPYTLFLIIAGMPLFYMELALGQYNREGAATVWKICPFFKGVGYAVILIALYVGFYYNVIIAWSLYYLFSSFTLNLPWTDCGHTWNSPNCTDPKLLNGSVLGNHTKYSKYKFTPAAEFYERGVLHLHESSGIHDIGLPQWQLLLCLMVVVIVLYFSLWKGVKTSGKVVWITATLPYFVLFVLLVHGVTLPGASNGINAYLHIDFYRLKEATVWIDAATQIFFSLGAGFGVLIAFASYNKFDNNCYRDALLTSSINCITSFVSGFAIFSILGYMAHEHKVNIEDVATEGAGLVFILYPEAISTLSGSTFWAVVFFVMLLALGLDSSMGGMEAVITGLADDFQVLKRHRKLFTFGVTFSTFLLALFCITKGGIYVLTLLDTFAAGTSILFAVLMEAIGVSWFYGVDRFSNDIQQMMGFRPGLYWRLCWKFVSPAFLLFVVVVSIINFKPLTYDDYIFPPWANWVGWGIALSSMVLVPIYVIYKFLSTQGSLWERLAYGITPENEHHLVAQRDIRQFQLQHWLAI

For orientation: IC50 means the concentration that inhibits the measured activity by half. `CC1NC(C)(C)COC1(O)c1cc(Cl)cc(Cl)c1` (racemic) [Compound 4p, 2-(3,5-Dichlorophenyl)-3,5,5-trimethylmorpholin-2-ol]: the “selectivity for inhibition of NE uptake over α3β4*-nAChR function” value on NE transporters [h(NET)] is listed as 1.6 fold. Also, the 50% inhibitory concentration (IC50) on NE transporters [h(NET)] is 2.44 ± 0.73 µM; in experiment [1] (setting [4]), more than 10 µM; on α4β4-nAChR, 18 µM. Further, in experiment [2], the ED50 turned out to be 1.9 mg/kg. Besides, the “AD50 Hypothermia” value in experiment [3] is on record as “IA (IA: AD50 > 15 mg/kg)”.
With `C[C@@H]1NC(C)(C)CO[C@@]1(O)c1ccc(-c2ccccc2)cc1` [Compound 4l, (2S,3S)-2-Biphenyl-4-yl-3,5,5-trimethylmorpholin-2-ol], the IC50 at NE transporters [h(NET)] was 10.3 µM; in experiment [1], more than 10 µM; on α4β4-nAChR it was 8.1 µM. The “AD50 Locomotion” value in experiment [2] was “IA (IA: AD50 > 15 mg/kg)”. In addition, the “AD50 Hypothermia” value in experiment [3] was “IA (IA: AD50 > 15 mg/kg)”.
In the case of `C[C@@H]1NC(C)(C)CO[C@@]1(O)c1cc(F)cc(F)c1` [Compound 4o, (2S,3S)-2-(3,5-Difluorophenyl)-3,5,5-trimethylmorpholin-2-ol], the “selectivity for inhibition of NE uptake over α4β2-nAChR function” value on NE transporters [h(NET)] is on record as 42 fold. Besides, the IC50 is 0.151 ± 0.043 µM on NE transporters [h(NET)], more than 10 µM in experiment [1] (setting [4]) and 62 µM on α4β4-nAChR. Further, the “AD50 Locomotion” value in experiment [2] is “IA (IA: AD50 > 15 mg/kg)”. Besides, the “AD50 Hypothermia” value in experiment [3] is “IA (IA: AD50 > 15 mg/kg)”.
Regarding `COc1ccc([C@]2(O)OCC(C)(C)N[C@H]2C)cc1` [Compound 4k, (2S,3S)-2-(4-Methoxyphenyl)-3,5,5-trimethylmorpholin-2-ol], the results for the IC50 (on NE transporters [h(NET)]; in experiment [1]; at α4β4-nAChR) were more than 10 µM, more than 10 µM and 72 µM, respectively. Besides, in experiment [2], the “AD50 Locomotion” value was “IA (IA: AD50 > 15 mg/kg)”. For the same compound, the “AD50 Hypothermia” value in experiment [3] is reported as “IA (IA: AD50 > 15 mg/kg)”.
For `C[C@@H]1NC(C)(C)CO[C@@]1(O)c1cccc([N+](=O)[O-])c1` [Compound 4g, (2S,3S)-2-(3-Nitrophenyl)-3,5,5-trimethylmorpholin-2-ol], the IC50 is 1.21 ± 0.34 µM at NE transporters [h(NET)], more than 10 µM in experiment [1] (setting [4]) and 80 µM at α4β4-nAChR. Also, the “selectivity for inhibition of NE over DA uptake” value at NE transporters [h(NET)] is given as 10 fold. Moreover, the “AD50 Locomotion” value in experiment [2] was “IA (IA: AD50 > 15 mg/kg)”.
Regarding `CC[C@@H]1NC(C)(C)CO[C@@]1(O)c1cccc(Cl)c1` [Compound 4s, (2S,3S)-2-(3-Chlorophenyl)-3-ethyl-5,5-dimethylmorpholin-2-ol], the IC50 came out at 0.043 µM at NE transporters [h(NET)], 2.5 ± 0.54 µM in experiment [1] (read-out: monoamine uptake inhibition IC50 [3H]5HT) and 16 µM on α4β4-nAChR. In addition, the “selectivity for inhibition of NE over DA uptake” value at NE transporters [h(NET)] is on record as 5 fold. In addition, in experiment [2], the ED50 stood at 10.3 mg/kg.
In the case of `C[C@@H]1N(C)C(C)(C)CO[C@@]1(O)c1ccc(Cl)cc1` [Compound 4v, (2S,3S)-2-(4-Chlorophenyl)-3,4,5,5-tetramethylmorpholin-2-ol], the IC50 amounted to 0.527 ± 0.104 µM at NE transporters [h(NET)], 6.48 ± 1.28 µM in experiment [1] (setting [4]) and 91 µM at α4β4-nAChR. Moreover, the “AD50 Locomotion” value in experiment [2] is on record as “IA (IA: AD50 > 15 mg/kg)”. Moreover, in experiment [3], the “AD50 Hypothermia” value was “IA (IA: AD50 > 15 mg/kg)”.
Consider `C[C@@H]1NC(C)(C)CO[C@@]1(O)c1ccc(Cl)cc1` [Compound 4i, (2S,3S)-2-(4-Chlorophenyl)-3,5,5-trimethylmorpholin-2-ol], for which the IC50 at NE transporters [h(NET)] is 0.83 ± 0.09 µM; in experiment [1] (setting [4]), 4.6 ± 0.9 µM; at α4β4-nAChR it was 33 µM. The “AD50 Locomotion” value in experiment [2] is reported as “IA (IA: AD50 > 15 mg/kg)”. For the same compound, the “AD50 Hypothermia” value in experiment [3] is on record as “IA (IA: AD50 > 15 mg/kg)”.
For the compound `Cc1ccc([C@]2(O)OCC(C)(C)N[C@H]2C)cc1` [Compound 4j, (2S,3S)-3,5,5-Trimethyl-2-(4-methylphenyl)morpholin-2-ol], the IC50 at NE transporters [h(NET)] is 1.68 ± 0.33 µM; in experiment [1] (setting [4]), more than 10 µM; on α4β4-nAChR, 62 µM. Moreover, the “AD50 Locomotion” value in experiment [2] is reported as “IA (IA: AD50 > 15 mg/kg)”. Besides, the “AD50 Hypothermia” value in experiment [3] is “IA (IA: AD50 > 15 mg/kg)”.
With `C[C@@H]1NC(C)(C)CO[C@@]1(O)c1ccc(F)cc1` [Compound 4h, (2S,3S)-2-(4-Fluorophenyl)-3,5,5-trimethylmorpholin-2-ol], the concentration for half-maximal inhibition (IC50) on NE transporters [h(NET)] is 3.8 ± 0.6 µM; in experiment [1] (setting [4]) it was more than 10 µM; at α4β4-nAChR it was more than 100 µM. Moreover, the “AD50 Locomotion” value in experiment [2] is listed as “IA (IA: AD50 > 15 mg/kg)”.
